Values quoted from earlier work, collected in patent publication US4127523A, “Novel undecapeptides, intermediates therefor, and compositions and methods employing said undecapeptides” (priority 1977, dated 1978).

Assays:
[1] = literature
[2] = injected directly into the brain of the rat; Belluzzi et al.
[3] = tested on: partially purified brain opiate receptor sites; settings: literature, Bradbury et al.

H-Tyr-Gly-Gly-Phe-Met-OH [methionine enkephalin]
activity in bioassays for opiate activity [1]: very active
analgesic activity [2]: only weak analgesic agent of short duration
binding to partially purified brain opiate receptor sites [3]: binds stereo-specifically
